This note sets out measurements from patent US20250345512A1, “COMBINATION SODIUM-GLUCOSE COTRANSPORTER INHIBITOR (SGLTI) INSULIN THERAPY FOR GLYCEMIC CONTROL IN TYPE 1 DIABETES” (University of Virginia Patent Foundation, priority 2022, published 2025).

SMILES strings stand for the structures.

The subject of this series is participants with T1D. Also noted: species or system human. To be noted: in vivo. The protocol: FIG. 2 presents a study analysis relative to baseline, control IQ (CIQ) (e.g., AID), and basal IQ (BIQ) (e.g., PLGS) implementation, according to investigation that is demonstrable of one or more embodiments herein. Therein, an experimental arm (G1, G2) providing an initial daily dose of 5 mg empagliflozin (EMPA) is depicted against a control arm (G3, G4) without such dosing (NOEMPA). Relative characteristics of the analysis are provided below.
Study Design: A single-center, randomized, controlled, unblinded, crossover clinical trial (NCT04201496) compared four parallel groups, two groups in the experimental arm (EMPA) with 5 mg daily empagliflozin as adjunctive therapy to PLGS or AID, and two groups in the control arm (NOEMPA) with no drug and with a PLGS system (Basal-IQ, Tandem Diabetes Care) or AID system (Control-IQ, Tandem Diabetes Care). […] A tolerance to the medication was assessed prior to the starting of the next study phase, including adherence to the protocol, ketone testing 2-4 times per day with monitored values not greater than 0.6 mmol/L on at least two successive occasions (the first testing upon waking in a fasted state), no adverse events relating to perineal infection or symptomatic postural hypotension, and no evidence of significant hypoglycemia <54 mg/dL, or any other listed adverse effects of the medication. […]

Consider `OC[C@H]1O[C@@H](c2ccc(Cl)c(Cc3ccc(O[C@H]4CCOC4)cc3)c2)[C@H](O)[C@@H](O)[C@@H]1O` [CIQ-EMPA, empagliflozin], for which the “Difference (95% CI): Ketones” value is given as 0.02 mmol/L.
